According to ChEMBL document CHEMBL3124925, “Further constituents of Galianthe thalictroides (Rubiaceae) and inhibition of DNA topoisomerases I and IIα by its cytotoxic β-carboline alkaloids” (Bioorg Med Chem Lett, 2014):
Values after ≈ are worked out from the molar mass of the structure shown. Active and inactive are the calls of the source. The calls are words filed in the database; no cut-off is given here.

Assays:
B16-F10 = test: Cytotoxicity against mouse B16F10 cells assessed as growth inhibition by SRB assay; format: functional
UACC-62 = test: Cytotoxicity against human UACC62 cells assessed as growth inhibition by SRB assay; format: functional, cell-based
MCF7 = test: Cytotoxicity against human MCF7 cells assessed as growth inhibition by SRB assay; format: functional, cell-based
786-0 = test: Cytotoxicity against human 786-0 cells assessed as growth inhibition by SRB assay; format: functional, cell-based
[1] = target: DNA topoisomerase 2-alpha (Homo sapiens) (UniProt P11388); test: Inhibition of recombinant human top2 alpha-mediated kDNA decatenation compound added post enzyme-DNA incubation by agarose gel electrophoresis in presence of DTT
Chain of DNA topoisomerase 2-alpha (Homo sapiens) (P11388 whole entry): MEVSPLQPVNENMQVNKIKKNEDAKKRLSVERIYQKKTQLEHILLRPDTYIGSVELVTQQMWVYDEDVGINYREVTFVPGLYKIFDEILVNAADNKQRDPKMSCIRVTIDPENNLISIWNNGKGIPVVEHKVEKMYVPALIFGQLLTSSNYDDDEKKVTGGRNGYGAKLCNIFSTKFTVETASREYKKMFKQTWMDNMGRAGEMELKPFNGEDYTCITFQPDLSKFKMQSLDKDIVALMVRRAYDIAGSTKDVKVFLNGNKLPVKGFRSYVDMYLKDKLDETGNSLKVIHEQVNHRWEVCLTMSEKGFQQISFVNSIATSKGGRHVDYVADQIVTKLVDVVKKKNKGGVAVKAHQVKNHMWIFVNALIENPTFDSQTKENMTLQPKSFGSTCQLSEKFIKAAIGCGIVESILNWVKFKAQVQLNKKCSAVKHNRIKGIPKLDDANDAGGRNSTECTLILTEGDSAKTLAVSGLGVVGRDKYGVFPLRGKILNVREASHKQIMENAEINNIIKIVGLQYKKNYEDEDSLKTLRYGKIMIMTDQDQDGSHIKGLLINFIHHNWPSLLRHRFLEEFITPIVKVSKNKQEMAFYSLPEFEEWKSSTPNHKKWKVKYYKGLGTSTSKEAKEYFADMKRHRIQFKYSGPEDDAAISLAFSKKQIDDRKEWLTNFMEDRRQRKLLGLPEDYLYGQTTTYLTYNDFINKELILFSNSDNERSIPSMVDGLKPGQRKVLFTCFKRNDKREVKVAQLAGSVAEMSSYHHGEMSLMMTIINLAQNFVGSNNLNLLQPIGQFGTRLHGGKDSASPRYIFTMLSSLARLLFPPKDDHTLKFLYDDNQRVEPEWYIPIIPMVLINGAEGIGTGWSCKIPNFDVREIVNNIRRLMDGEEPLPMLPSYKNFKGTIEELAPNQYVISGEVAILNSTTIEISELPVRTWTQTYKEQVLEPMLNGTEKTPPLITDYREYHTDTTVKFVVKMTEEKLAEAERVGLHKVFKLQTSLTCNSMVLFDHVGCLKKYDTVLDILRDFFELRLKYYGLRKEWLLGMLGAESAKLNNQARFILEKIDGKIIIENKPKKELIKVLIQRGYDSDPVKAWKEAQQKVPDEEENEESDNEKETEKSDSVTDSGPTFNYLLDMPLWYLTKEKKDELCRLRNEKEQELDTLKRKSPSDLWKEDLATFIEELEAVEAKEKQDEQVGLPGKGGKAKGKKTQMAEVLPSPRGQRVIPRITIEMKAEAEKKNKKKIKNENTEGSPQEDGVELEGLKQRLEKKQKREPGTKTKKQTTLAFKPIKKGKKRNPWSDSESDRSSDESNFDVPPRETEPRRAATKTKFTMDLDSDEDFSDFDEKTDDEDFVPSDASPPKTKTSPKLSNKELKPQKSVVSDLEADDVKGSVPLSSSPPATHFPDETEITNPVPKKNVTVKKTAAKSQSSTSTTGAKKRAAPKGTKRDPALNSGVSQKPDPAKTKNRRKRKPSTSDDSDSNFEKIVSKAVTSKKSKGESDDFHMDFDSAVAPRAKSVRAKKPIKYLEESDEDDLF

[2] = target: DNA topoisomerase 2-alpha (Homo sapiens) (UniProt P11388); test: Inhibition of recombinant human top2 alpha-mediated kDNA decatenation compound added post enzyme-DNA incubation by agarose gel electrophoresis
[3] = target: DNA topoisomerase 2-alpha (Homo sapiens) (UniProt P11388); test: Inhibition of recombinant human top2 alpha-mediated kDNA decatenation at 25 uM after 30 mins by agarose gel electrophoresis
[4] = target: T1, DNA topoisomerase 1 (Homo sapiens) (UniProt P11387); test: Inhibition of recombinant human DNA top1-mediated relaxation of pBR322 plasmid at 25 uM after 30 mins by agarose gel electrophoresis
T1 sequence (whole entry): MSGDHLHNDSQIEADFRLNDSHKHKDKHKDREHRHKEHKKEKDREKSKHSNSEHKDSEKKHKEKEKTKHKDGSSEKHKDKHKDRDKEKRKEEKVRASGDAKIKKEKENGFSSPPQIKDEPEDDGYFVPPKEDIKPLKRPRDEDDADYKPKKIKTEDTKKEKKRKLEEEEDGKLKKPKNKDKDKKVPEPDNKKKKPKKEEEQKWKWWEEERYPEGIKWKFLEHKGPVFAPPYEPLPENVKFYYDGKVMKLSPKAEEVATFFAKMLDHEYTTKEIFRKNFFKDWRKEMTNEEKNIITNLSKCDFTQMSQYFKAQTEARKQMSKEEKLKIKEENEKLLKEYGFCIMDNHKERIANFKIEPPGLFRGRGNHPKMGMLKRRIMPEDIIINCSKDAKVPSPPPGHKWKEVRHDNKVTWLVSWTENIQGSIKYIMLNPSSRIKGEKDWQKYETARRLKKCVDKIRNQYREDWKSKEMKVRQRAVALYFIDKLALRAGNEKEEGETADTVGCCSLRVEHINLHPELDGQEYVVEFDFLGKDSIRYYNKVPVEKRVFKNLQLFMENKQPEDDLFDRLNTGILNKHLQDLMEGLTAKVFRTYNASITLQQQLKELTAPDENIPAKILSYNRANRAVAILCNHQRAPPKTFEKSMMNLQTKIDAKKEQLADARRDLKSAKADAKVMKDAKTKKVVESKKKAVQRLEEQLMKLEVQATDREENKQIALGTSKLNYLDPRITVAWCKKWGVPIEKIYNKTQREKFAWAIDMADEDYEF

[5] = target: T1, DNA topoisomerase 1 (Homo sapiens); test: Inhibition of recombinant human DNA top1-mediated relaxation of pBR322 plasmid at 100 uM after 30 mins by agarose gel electrophoresis
[6] = target: DNA topoisomerase 2-alpha (Homo sapiens) (UniProt P11388); test: Inhibition of recombinant human top2 alpha-mediated kDNA decatenation at 1 uM after 30 mins by agarose gel electrophoresis
[7] = target: T1, DNA topoisomerase 1 (Homo sapiens); test: Inhibition of recombinant human DNA top1-mediated relaxation of pBR322 plasmid at 1 uM after 30 mins by agarose gel electrophoresis
[8] = target: DNA topoisomerase 2-alpha (Homo sapiens) (UniProt P11388); conditions: 100 uM
Description: Inhibition of recombinant human top2 alpha-mediated kDNA decatenation at 100 uM after 30 mins by agarose gel electrophoresis

Structure (SMILES) | GI50 (B16-F10) | GI50 (UACC-62) | GI50 (MCF7) | GI50 (786-0) | inhibition [1] | inhibition [2] | other results
COc1cccc2c1C(=O)c1c(O)c3c(c(O)c1C2=O)C[C@@](O)(C(=O)CO)C[C@@H]3O[C@H]1C[C@H](N)[C@H](O)[C@H](C)O1.Cl [DOXORUBICIN HYDROCHLORIDE] | 0.22 µg/mL | 0.25 µg/mL | 0.23 µg/mL | 0.43 µg/mL | – | – | –
COc1cccc2[nH]c3c([C@H]4[C@H](C(C)(C)O)CC[C@@]4(O)CO)nccc3c12 | – | – | – | – | Active | Active | inhibition [3]: Active; inhibition [4]: Active; IC50 (UACC-62): 1.7 µg/mL (≈ 4.59 µM); IC50 (MCF7): 1.8 µg/mL (≈ 4.86 µM); IC50 (786-0): 0.22 µg/mL (≈ 0.594 µM)
CCc1c2c(nc3ccc(OC(=O)N4CCC(N5CCCCC5)CC4)cc13)-c1cc3c(c(=O)n1C2)COC(=O)[C@]3(O)CC | – | – | – | – | – | – | inhibition [5]: Active
COc1cccc2[nH]c3c([C@H]4[C@H](C(C)(C)O)CC[C@]4(C)O)nccc3c12 | 19.5 µg/mL (≈ 55 µM) | 2.5 µg/mL (≈ 7.05 µM) | 3 µg/mL (≈ 8.46 µM) | 3 µg/mL (≈ 8.46 µM) | Active | Active | inhibition [6]: Active; inhibition [7]: Active
COc1cc([C@@H]2c3cc4c(cc3[C@@H](O[C@@H]3O[C@@H]5CO[C@@H](C)O[C@H]5[C@H](O)[C@H]3O)[C@H]3COC(=O)[C@H]23)OCO4)cc(OC)c1O | – | – | – | – | Active | Active | inhibition [8]: Active
